Measurements: ChEMBL document CHEMBL1156824, “Physicochemical space for optimum oral bioavailability: contribution of human intestinal absorption and first-pass elimination” (J Med Chem, 2010)

Columns and labels:
[1] = clinical; conditions: human, in vivo
[2] = species on record: Homo sapiens; assay: Hepatic clearance in human; conditions: in vivo
[3] = tested on: Homo sapiens; assay: Oral bioavailability in human; conditions: in vivo
[4] = species on record: Homo sapiens; assay: Fraction escaping hepatic elimination in human; conditions: in vivo
[5] = Volume of distribution at steady state in human; conditions: in vivo

| SMILES | CL renal [1] | CL [2] | F_fraction [3] | Fh [4] | Vd [5] |
| --- | --- | --- | --- | --- | --- |
| COc1ccc(C(=O)Nc2ccccc2CCC2CCCCN2C)cc1 (stereo not drawn) [ENCAINIDE] | 0.8 mL/min/kg | 12.2 mL/min/kg | 0.3 | – | – |
| CCCCNC(=O)NS(=O)(=O)c1ccc(C)cc1 [TOLBUTAMIDE] | 0.0002 mL/min/kg | – | – | 0.99 | – |
| Nc1c(CC(=O)O)cccc1C(=O)c1ccc(Br)cc1 [BROMFENAC] | 0.0022 mL/min/kg | 1.3 mL/min/kg | 0.67 | – | – |
| O=C1C(CC[S+]([O-])c2ccccc2)C(=O)N(c2ccccc2)N1c1ccccc1 (stereo not drawn) [SULFINPYRAZONE] | – | – | 0.93 | – | – |
| C=CC1=C(C(=O)O)N2C(=O)[C@@H](NC(=O)/C(=N\OCC(=O)O)c3csc(N)n3)[C@H]2SC1 [CEFIXIME] | 0.4 mL/min/kg | 0.6 mL/min/kg | 0.47 | – | – |
| Nc1nc(=O)[nH]cc1F [FLUCYTOSINE] | – | 0.02 mL/min/kg | 0.84 | – | – |
| CCCCc1nc(Cl)c(CO)n1Cc1ccc(-c2ccccc2-c2nn[nH]n2)cc1 [LOSARTAN] | – | 7.3 mL/min/kg | 0.36 | – | – |
| CCOc1ccccc1OCCN[C@H](C)Cc1ccc(OC)c(S(N)(=O)=O)c1 [TAMSULOSIN] | 0.1 mL/min/kg | 0.5 mL/min/kg | 1 | – | – |
| Cc1c(OCC(F)(F)F)ccnc1C[S+]([O-])c1nc2ccccc2[nH]1 (stereo not drawn) [LANSOPRAZOLE] | 0.044 mL/min/kg | 4.4 mL/min/kg | 0.85 | – | – |
| Nc1nc2c(ncn2CCC(CO)CO)c(=O)[nH]1 [PENCICLOVIR] | – | 1.7 mL/min/kg | 0.05 | – | – |
| Nc1ccn([C@H]2CC[C@@H](CO)O2)c(=O)n1 [ZALCITABINE] | 4.5 mL/min/kg | 1.1 mL/min/kg | – | 0.95 | – |
| CCOc1ccccc1OC(c1ccccc1)C1CNCCO1 (stereo not drawn) [REBOXETINE] | 0.041 mL/min/kg | 0.8 mL/min/kg | 0.95 | – | – |
| CC(C)NCC(O)c1ccc(NS(C)(=O)=O)cc1 (stereo not drawn) [SOTALOL] | – | 0.3 mL/min/kg | 0.95 | – | – |
| Cc1ccc(-c2nc3ccc(C)cn3c2CC(=O)N(C)C)cc1 [ZOLPIDEM] | 0.043 mL/min/kg | 4.3 mL/min/kg | 0.72 | – | – |
| CC(C)n1c(/C=C/C(O)CC(O)CC(=O)O)c(-c2ccc(F)cc2)c2ccccc21 (stereo not drawn) [FLUVASTATIN] | – | – | – | 0.3 | – |
| CN(C)c1ccc(O)c2c1C[C@H]1C[C@H]3[C@H](N(C)C)C(O)=C(C(N)=O)C(=O)[C@@]3(O)C(O)=C1C2=O [MINOCYCLINE] | 0.1 mL/min/kg | 1.1 mL/min/kg | 1 | – | – |
| CCOC(=O)C1=C(C)NC(C)=C(C(=O)OC)C1c1cccc(Cl)c1Cl (stereo not drawn) [FELODIPINE] | – | – | 0.16 | – | – |
| CCCN(CCC)S(=O)(=O)c1ccc(C(=O)O)cc1 [PROBENECID] | – | 0.2 mL/min/kg | 1 | – | – |
| C[C@H](CS)C(=O)N1CCC[C@H]1C(=O)O [CAPTOPRIL] | – | – | 0.62 | – | – |
| CN(C)C(=N)N=C(N)N [METFORMIN] | – | – | – | 1 | – |
| CCCc1nc2c(C)cc(-c3nc4ccccc4n3C)cc2n1Cc1ccc(-c2ccccc2C(=O)O)cc1 | 0.1 mL/min/kg | 8.3 mL/min/kg | 0.43 | – | – |
| CC(C)c1nc(N(C)S(C)(=O)=O)nc(-c2ccc(F)cc2)c1/C=C/[C@@H](O)C[C@@H](O)CC(=O)O [ROSUVASTATIN] | – | 7.7 mL/min/kg | 0.2 | – | – |

| SMILES | CL renal [1] | CL [2] | F_fraction [3] | Fh [4] | Vd [5] |
| --- | --- | --- | --- | --- | --- |
| COC(=O)C1=C(C)NC(C)=C(C(=O)OC)C1c1ccccc1[N+](=O)[O-] [NIFEDIPINE] | – | – | 0.5 | – | – |
| CCc1nn(CCCN2CCN(c3cccc(Cl)c3)CC2)c(=O)n1CCOc1ccccc1 [NEFAZODONE] | 0.4 mL/min/kg | 7.1 mL/min/kg | 0.19 | – | – |
| O=C(c1ccc(F)cc1)C1CCN(CCn2c(=O)[nH]c3ccccc3c2=O)CC1 [KETANSERIN] | 0.1 mL/min/kg | 6.6 mL/min/kg | 0.5 | – | – |
| NCC1(CC(=O)O)CCCCC1 [GABAPENTIN] | – | – | 0.6 | – | – |
| O=C(c1ccccc1)c1ccc2n1CCC2C(=O)O (stereo not drawn) [KETOROLAC] | – | 0.2 mL/min/kg | 1 | – | – |
| CNS(=O)(=O)Cc1ccc2[nH]cc(CCN(C)C)c2c1 | – | 15.3 mL/min/kg | 0.14 | – | – |
| CN1CCN(c2c(F)cc3c(=O)c(C(=O)O)cn(CCF)c3c2F)CC1 [FLEROXACIN] | – | 0.9 mL/min/kg | – | – | 1.3 L/kg |
| CC(=O)N[C@H]1[C@H]([C@H](O)[C@H](O)CO)OC(C(=O)O)=C[C@@H]1N=C(N)N [ZANAMIVIR] | – | 0.2 mL/min/kg | 0.03 | – | – |
| O=[N+]([O-])O[C@@H]1CO[C@H]2[C@@H]1OC[C@@H]2O [ISOSORBIDE MONONITRATE] | – | 1.9 mL/min/kg | – | – | 0.7 L/kg |
| CC(C)(C)NC(=O)[C@@H]1C[C@@H]2CCCC[C@@H]2CN1C[C@@H](O)[C@H](Cc1ccccc1)NC(=O)[C@H](CC(N)=O)NC(=O)c1ccc2ccccc2n1 | – | – | – | 0.45 | – |
| CC(=O)Nc1ccc(O)cc1 [ACETAMINOPHEN] | – | – | – | – | 1 L/kg |
| CN1Cc2c(N)cccc2C(c2ccccc2)C1 (stereo not drawn) [NOMIFENSINE] | – | 9.5 mL/min/kg | – | – | 6 L/kg |
| CC(C)(C)NCC(O)c1ccc(O)c(CO)c1 (stereo not drawn) [ALBUTEROL] | – | – | – | 0.88 | – |
| CNC(=C[N+](=O)[O-])NCCSCc1csc(CN(C)C)n1 [NIZATIDINE] | – | 2.5 mL/min/kg | – | – | 1 L/kg |
| COC(=O)C1=C(C)NC(C)=C(C(=O)OCCN(C)Cc2ccccc2)C1c1cccc([N+](=O)[O-])c1 (stereo not drawn) [NICARDIPINE] | – | – | – | – | 1 L/kg |
| CNCCCN1c2ccccc2CCc2ccccc21 [DESIPRAMINE] | – | – | 0.4 | 0.53 | – |
| CCN1CCCC1CNC(=O)c1cc(S(=O)(=O)CC)c(N)cc1OC (stereo not drawn) [AMISULPRIDE] | – | 3.4 mL/min/kg | – | – | 5.8 L/kg |
| CO[C@H]1/C=C/O[C@@]2(C)Oc3c(C)c(O)c4c(c3C2=O)C2=NC3(CCN(CC(C)C)CC3)NC2=C(NC(=O)/C(C)=C\C=C\[C@H](C)[C@H](O)[C@@H](C)[C@@H](O)[C@@H](C)[C@H](OC(C)=O)[C@@H]1C)C4=O [RIFABUTIN] | – | 2 mL/min/kg | 0.2 | 0.91 | – |
| Nc1ccc(S(=O)(=O)c2ccc(N)cc2)cc1 [DAPSONE] | – | 0.4 mL/min/kg | – | 0.98 | – |
| CC[C@H]1OC(=O)[C@H](C)[C@@H](O[C@H]2C[C@@](C)(OC)[C@@H](O)[C@H](C)O2)[C@H](C)[C@@H](O[C@@H]2O[C@H](C)C[C@H](N(C)C)[C@H]2O)[C@](C)(O)C[C@@H](C)C(=O)[C@H](C)[C@@H](O)[C@]1(C)O [ERYTHROMYCIN] | 0.3 mL/min/kg | 5.3 mL/min/kg | 0.35 | – | – |
| CC[C@H]1OC(=O)[C@H](C)[C@@H](O[C@H]2C[C@@](C)(OC)[C@@H](O)[C@H](C)O2)[C@H](C)[C@@H](O[C@@H]2O[C@H](C)C[C@H](N(C)C)[C@H]2O)[C@](C)(O)C[C@@H](C)CN(C)[C@H](C)[C@@H](O)[C@]1(C)O [AZITHROMYCIN] | 0.5 mL/min/kg | 9.6 mL/min/kg | 0.34 | – | – |
| Cc1nc2n(c(=O)c1CCN1CCC(c3noc4cc(F)ccc34)CC1)CCCC2 [RISPERIDONE] | 0.2 mL/min/kg | – | 0.66 | – | – |

| SMILES | CL renal [1] | CL [2] | F_fraction [3] | Fh [4] | Vd [5] |
| --- | --- | --- | --- | --- | --- |
| CCCc1nc(C)c2c(=O)[nH]c(-c3cc(S(=O)(=O)N4CCN(CC)CC4)ccc3OCC)nn12 | – | – | – | – | 3 L/kg |
| O=C(NCCNCC(O)COc1ccc(O)cc1)N1CCOCC1 (stereo not drawn) [XAMOTEROL] | – | 1.1 mL/min/kg | 0.05 | – | – |
| C[C@@H]1CN(c2c(F)c(N)c3c(=O)c(C(=O)O)cn(C4CC4)c3c2F)C[C@H](C)N1 [SPARFLOXACIN] | – | 2.3 mL/min/kg | 0.92 | – | – |
| C[C@H]1COc2c(N3CCN(C)CC3)c(F)cc3c(=O)c(C(=O)O)cn1c23.C[C@H]1COc2c(N3CCN(C)CC3)c(F)cc3c(=O)c(C(=O)O)cn1c23.O [LEVOFLOXACIN] | – | 0.5 mL/min/kg | 0.99 | – | – |
| COc1cccc2c1C(=O)c1c(O)c3c(c(O)c1C2=O)C[C@@](O)(C(=O)CO)C[C@@H]3O[C@H]1C[C@H](N)[C@H](O)[C@H](C)O1 [DOXORUBICIN] | – | 13.2 mL/min/kg | 0.05 | – | – |
| CC(C)Cc1ccc(C(C)C(=O)O)cc1 (stereo not drawn) [IBUPROFEN] | – | – | 0.95 | – | – |
| CCCNC(=O)NS(=O)(=O)c1ccc(Cl)cc1 [CHLORPROPAMIDE] | 0.009 mL/min/kg | 0.036 mL/min/kg | – | – | – |
| OC(Cn1cncn1)(Cn1cncn1)c1ccc(F)cc1F [FLUCONAZOLE] | 0.2 mL/min/kg | 0.1 mL/min/kg | – | – | – |
| N[C@@H](C(=O)N[C@@H]1C(=O)N2C(C(=O)O)=C(CSc3c[nH]nn3)CS[C@H]12)c1ccc(O)cc1 [CEFATRIZINE] | – | 0.7 mL/min/kg | 0.75 | – | – |
| CC[C@H](C)C(=O)O[C@H]1C[C@@H](C)C=C2C=C[C@H](C)[C@H](CC[C@@H]3C[C@@H](O)CC(=O)O3)[C@H]21 [LOVASTATIN] | 0.7 mL/min/kg | 6.5 mL/min/kg | – | 0.72 | – |
| COc1ccc2[nH]c([S+]([O-])Cc3ncc(C)c(OC)c3C)nc2c1 (stereo not drawn) [OMEPRAZOLE] | 0.1 mL/min/kg | 8.3 mL/min/kg | 0.53 | – | – |
| CN(C)Cc1nnc2n1-c1ccc(Cl)cc1C(c1ccccc1)=NC2 [ADINAZOLAM] | – | 3.6 mL/min/kg | 0.39 | – | – |
| CCCC(=O)Nc1ccc(OCC(O)CNC(C)C)c(C(C)=O)c1 (stereo not drawn) [ACEBUTOLOL] | – | – | 0.5 | – | – |
| CCCCCN(CCCOC)C(=O)[C@@H](CCC(=O)O)NC(=O)c1ccc(Cl)c(Cl)c1 [DEXLOXIGLUMIDE] | 0.4 mL/min/kg | 3.3 mL/min/kg | – | – | – |
| Cn1c(=O)c2c(ncn2C)n(C)c1=O [CAFFEINE] | 0.017 mL/min/kg | 1.4 mL/min/kg | – | – | – |
| O=C(O)Cc1ccccc1Nc1c(Cl)cccc1Cl [DICLOFENAC] | 0.035 mL/min/kg | 3.5 mL/min/kg | – | 0.85 | – |
| COc1ccc(C(CN(C)C)C2(O)CCCCC2)cc1 (stereo not drawn) [VENLAFAXINE] | 0.6 mL/min/kg | 13.4 mL/min/kg | 0.42 | – | – |
| CCN1CC(CCN2CCOCC2)C(c2ccccc2)(c2ccccc2)C1=O (stereo not drawn) [DOXAPRAM] | 0.3 mL/min/kg | 5 mL/min/kg | – | – | – |
| CN(C)CCCC1(c2ccc(F)cc2)OCc2cc(C#N)ccc21 (stereo not drawn) [CITALOPRAM] | 0.5 mL/min/kg | 3.8 mL/min/kg | – | – | – |
| Cc1ccsc1C(=CCCN1CCC[C@@H](C(=O)O)C1)c1sccc1C [TIAGABINE] | 0.032 mL/min/kg | 1.6 mL/min/kg | – | – | – |
